Source: patent US20250248403A1, “COMPOSITION FOR REDUCING AMOUNT OF REACTIVE OXYGEN” (KANEKA CORPORATION, priority 2022, published 2025)

Tested on: soybeans (Fukuyutaka)
Assay: Electron transfer rate (ETR) by PAM fluorometry after foliar spraying and paraquat application
Format: in vivo, soybean
Settings: 24 h after paraquat
Source text: In FIG. 1 to FIG. 18 related to the examples, the relative value indicated above each bar chart in each drawing means a relative value when T1 in each drawing is 100. When an X % increase (relative to T2) is indicated above each bar chart in each drawing, it means that the value increases by X % relative to the value of T2 in each drawing. When a Y % decrease (relative to T2) is indicated above each bar chart in each drawing, it means that the value decreases by Y % relative to the value of T2 in each drawing.
A 9 cm poly pot was filled with culture soil and seeded with three soybeans (Fukuyutaka).
After seeding, the soybeans were cultivated in an incubator set in a light period (6:00-18:00, temperature 26° C., illuminance 120 μmol/m^2·s) and a dark period (18:00-6:00, temperature 18° C.). After germination, they were thinned to one plant.
(§1) After the first true leaf development, in each of the following treatments, foliar spraying of the following liquid (composition for reducing reactive oxygen) was conducted on each plant (application of the composition for reducing reactive oxygen). Twenty-four hours after the foliar spraying, foliar spraying of a paraquat aqueous solution with SILWET L-77 added to make a 1,000-fold dilution was conducted on each plant, except for a Control (T1) (paraquat application).
Electron transfer rate (ETR) was measured by pulse amplitude modulated fluorometry (PAM fluorometry) twenty-four hours after the paraquat application. In addition, twenty-four hours after the paraquat application, a SPAD value was measured using a chlorophyll meter.
as §1, with “for the” for “for a”
ETR was measured by the PAM fluorometry twenty-four hours after the paraquat application. In addition, twenty-four hours after the paraquat application, a SPAD value was measured using a chlorophyll meter.
After seeding, the soybeans were cultivated in an incubator set in a light period (6:00-18:00, temperature 26° C., illuminance 120 μmol/m^2·s)

Row | Substance | ETR compared with T2 (Experimental Example 4, T3: SL diluted 1000 times, PAR 1496) | ETR compared with T2 (Experimental Example 3, T3: SF diluted 10000 times, PAR 1496) | ETR compared with T2 (Experimental Example 6, T3: SF diluted 10000 times, PAR 1496) | ETR compared with T2 (Experimental Example 9, T3: SF diluted 2000 times, PAR 1455)
1 | sophorolipid [SL] | slightly increased | – | – | –
2 | surfactin Na [SF] | – | slightly increased | slightly increased | significantly increased
